≈ marks a conversion by molar mass, not a printed value. Where “and” joins values, the source holds several entries; their conditions need not be identical. Equal values may be shown once. Calls of active or inactive are those of the source. The rule behind the calls is not given here.
Legend:
[1] = target: Hepatocyte growth factor receptor (Homo sapiens, UniProt P08581, D1228N); test: Inhibition of N-terminal GST-tagged recombinant human c-MET D1228N mutant (956 to end residues) extracted from baculovirus infected Sf9 cells using 5-FAM-KKKKEEIYFFF-CONH2 as substrate preincubated for 30 mins followed by ATP addition measured after 60 mins by fluorescence-based microfluidic mobility shift assay
Sequence of Hepatocyte growth factor receptor (P08581 25-1390 D1228N limits assumed): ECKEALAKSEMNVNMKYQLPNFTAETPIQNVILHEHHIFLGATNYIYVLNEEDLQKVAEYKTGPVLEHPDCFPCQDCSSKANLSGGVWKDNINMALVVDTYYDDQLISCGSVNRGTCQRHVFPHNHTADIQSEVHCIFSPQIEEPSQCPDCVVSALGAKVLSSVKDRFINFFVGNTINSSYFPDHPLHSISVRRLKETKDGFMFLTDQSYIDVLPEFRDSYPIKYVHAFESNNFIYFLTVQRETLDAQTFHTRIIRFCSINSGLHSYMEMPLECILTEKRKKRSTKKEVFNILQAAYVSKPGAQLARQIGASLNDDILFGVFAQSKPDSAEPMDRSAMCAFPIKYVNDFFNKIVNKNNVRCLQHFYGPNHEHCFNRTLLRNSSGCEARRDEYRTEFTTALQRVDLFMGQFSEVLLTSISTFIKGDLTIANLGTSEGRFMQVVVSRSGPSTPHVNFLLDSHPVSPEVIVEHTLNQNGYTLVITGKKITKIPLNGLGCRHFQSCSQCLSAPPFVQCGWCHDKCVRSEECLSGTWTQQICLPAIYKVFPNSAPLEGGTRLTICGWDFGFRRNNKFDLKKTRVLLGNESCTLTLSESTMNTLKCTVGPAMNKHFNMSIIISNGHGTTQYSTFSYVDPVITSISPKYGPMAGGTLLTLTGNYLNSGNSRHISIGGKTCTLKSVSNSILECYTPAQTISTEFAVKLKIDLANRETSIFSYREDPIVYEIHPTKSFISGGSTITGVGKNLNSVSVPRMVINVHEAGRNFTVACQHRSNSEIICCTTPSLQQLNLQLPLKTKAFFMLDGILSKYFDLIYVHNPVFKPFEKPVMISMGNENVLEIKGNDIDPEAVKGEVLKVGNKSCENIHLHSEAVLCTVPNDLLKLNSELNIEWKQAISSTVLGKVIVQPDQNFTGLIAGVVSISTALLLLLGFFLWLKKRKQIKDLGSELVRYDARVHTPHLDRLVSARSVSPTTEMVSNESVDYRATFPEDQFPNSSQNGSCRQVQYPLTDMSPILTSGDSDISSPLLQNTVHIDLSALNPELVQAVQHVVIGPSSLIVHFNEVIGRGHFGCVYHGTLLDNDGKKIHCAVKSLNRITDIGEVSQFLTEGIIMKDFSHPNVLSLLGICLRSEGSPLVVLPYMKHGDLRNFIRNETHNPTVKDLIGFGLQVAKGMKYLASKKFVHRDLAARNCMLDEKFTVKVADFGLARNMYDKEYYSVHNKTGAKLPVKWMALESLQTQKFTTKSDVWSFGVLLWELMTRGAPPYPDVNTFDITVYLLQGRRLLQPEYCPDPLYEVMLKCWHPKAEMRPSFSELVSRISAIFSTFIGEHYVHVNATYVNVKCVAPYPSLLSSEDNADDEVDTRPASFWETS

[2] = Kinetic solubility of compound at pH 4.5; format: physicochemical; conditions: buffer, read-out: Kinetic_solubility
Cytochrome P450 3A4 = Cytochrome P450 3A4 (Homo sapiens, UniProt P08684); test: Inhibition of CYP3A4 (unknown origin); format: ADME; conditions: human
hERG [3] = target: T1, hERG (Homo sapiens, UniProt Q12809); test: Inhibition of hERG at 10 uM by CEREP analysis relative to control; format: toxicity
T1 sequence (Q12809 whole entry): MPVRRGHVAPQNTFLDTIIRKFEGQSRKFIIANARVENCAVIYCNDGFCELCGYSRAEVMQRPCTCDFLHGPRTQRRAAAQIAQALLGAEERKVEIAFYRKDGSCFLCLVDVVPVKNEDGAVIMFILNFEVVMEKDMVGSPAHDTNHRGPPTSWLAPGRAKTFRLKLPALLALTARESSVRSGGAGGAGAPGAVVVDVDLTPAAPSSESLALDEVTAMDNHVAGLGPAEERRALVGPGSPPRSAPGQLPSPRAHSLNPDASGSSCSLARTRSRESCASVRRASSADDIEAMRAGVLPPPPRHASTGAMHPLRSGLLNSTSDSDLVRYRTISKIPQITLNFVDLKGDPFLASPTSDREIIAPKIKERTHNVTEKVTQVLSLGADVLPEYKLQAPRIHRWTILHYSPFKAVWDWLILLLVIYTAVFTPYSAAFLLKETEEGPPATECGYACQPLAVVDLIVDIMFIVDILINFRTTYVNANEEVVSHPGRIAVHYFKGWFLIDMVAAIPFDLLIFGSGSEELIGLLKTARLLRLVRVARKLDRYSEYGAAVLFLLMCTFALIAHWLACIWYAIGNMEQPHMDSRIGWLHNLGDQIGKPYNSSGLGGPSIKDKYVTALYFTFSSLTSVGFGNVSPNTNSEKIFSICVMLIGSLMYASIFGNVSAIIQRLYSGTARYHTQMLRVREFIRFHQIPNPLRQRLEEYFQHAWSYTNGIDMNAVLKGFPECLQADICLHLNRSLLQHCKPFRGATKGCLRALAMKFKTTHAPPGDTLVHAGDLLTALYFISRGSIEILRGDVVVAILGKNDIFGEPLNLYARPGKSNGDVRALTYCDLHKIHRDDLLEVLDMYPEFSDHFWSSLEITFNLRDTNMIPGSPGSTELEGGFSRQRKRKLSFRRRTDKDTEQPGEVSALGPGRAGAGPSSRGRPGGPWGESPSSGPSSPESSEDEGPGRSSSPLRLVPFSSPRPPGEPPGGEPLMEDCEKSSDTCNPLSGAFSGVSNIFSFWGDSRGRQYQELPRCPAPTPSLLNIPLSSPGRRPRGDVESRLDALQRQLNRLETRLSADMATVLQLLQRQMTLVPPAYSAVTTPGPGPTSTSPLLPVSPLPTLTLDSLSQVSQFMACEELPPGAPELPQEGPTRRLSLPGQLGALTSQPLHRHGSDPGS

[4] = target: Sodium-dependent serotonin transporter (Homo sapiens) (UniProt P31645); test: Inhibition of SERT (unknown origin) at 10 uM by CEREP analysis relative to control
[5] = target: cGMP-inhibited 3',5'-cyclic phosphodiesterase 3A (Homo sapiens) (UniProt Q14432); test: Inhibition of PDE3A (unknown origin) at 10 uM by CEREP analysis relative to control
[6] = target: 3',5'-cyclic-AMP phosphodiesterase 4D (Homo sapiens) (UniProt Q08499); test: Inhibition of PDE4D2 (unknown origin) at 10 uM by CEREP analysis relative to control
Sequence of 3',5'-cyclic-AMP phosphodiesterase 4D (Homo sapiens) (Q08499 whole entry): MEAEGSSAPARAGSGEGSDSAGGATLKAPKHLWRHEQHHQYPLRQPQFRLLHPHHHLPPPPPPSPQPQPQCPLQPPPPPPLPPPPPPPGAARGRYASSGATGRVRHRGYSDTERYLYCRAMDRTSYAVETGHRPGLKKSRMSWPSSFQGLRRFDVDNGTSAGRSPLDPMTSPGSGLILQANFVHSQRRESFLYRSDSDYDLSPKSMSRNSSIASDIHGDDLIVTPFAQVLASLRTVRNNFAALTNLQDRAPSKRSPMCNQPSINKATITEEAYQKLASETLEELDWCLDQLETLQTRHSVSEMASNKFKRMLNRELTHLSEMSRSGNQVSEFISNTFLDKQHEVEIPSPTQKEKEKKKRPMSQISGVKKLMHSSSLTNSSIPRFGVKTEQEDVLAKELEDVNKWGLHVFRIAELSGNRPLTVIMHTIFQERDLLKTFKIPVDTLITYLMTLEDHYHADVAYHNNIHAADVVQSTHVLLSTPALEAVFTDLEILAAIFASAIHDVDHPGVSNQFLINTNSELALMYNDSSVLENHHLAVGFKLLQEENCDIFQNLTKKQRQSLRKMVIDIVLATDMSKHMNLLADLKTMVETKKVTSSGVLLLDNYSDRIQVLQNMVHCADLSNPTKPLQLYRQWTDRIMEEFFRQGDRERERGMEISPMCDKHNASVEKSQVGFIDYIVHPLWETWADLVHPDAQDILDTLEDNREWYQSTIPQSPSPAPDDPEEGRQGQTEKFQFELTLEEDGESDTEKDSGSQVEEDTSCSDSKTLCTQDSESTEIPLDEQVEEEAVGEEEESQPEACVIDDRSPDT

[7] = Half life in female Balb/c mouse at 1 mg/kg, iv; format: ADME, organism-based; conditions: in vivo
[8] = Clearance in female Balb/c mouse at 1 mg/kg, iv; format: ADME, organism-based; conditions: in vivo
[9] = Oral bioavailability in Balb/c mouse at 10 mg/kg; format: ADME, organism-based; conditions: in vivo
[10] = Half life in male Sprague-Dawley rat at 3 mg/kg, iv; format: ADME, organism-based; conditions: in vivo
[11] = AUClast in male Sprague-Dawley rat at 10 mg/kg, po; format: ADME, organism-based; conditions: in vivo
[12] = Half life in male Beagle dog at 1 mg/kg, iv; format: ADME, organism-based, Canis lupus familiaris; conditions: in vivo
[13] = Oral bioavailability in male Beagle dog at 10 mg/kg; format: ADME, organism-based, Canis lupus familiaris; conditions: in vivo
PXR = PXR (Homo sapiens, UniProt O75469); test: Induction of PXR (unknown origin) assessed as fold increase in activity at 1 uM relative to control; format: toxicity; conditions: read-out: FC
hERG [14] = target: T1, hERG; test: Inhibition of hERG; format: toxicity
[15] = target: Macrophage-stimulating protein receptor (Homo sapiens) (UniProt Q04912); test: Inhibition of wild-type RON (unknown origin) at 100 nM by kinome selectivity analysis relative to control
Sequence of Macrophage-stimulating protein receptor (Homo sapiens) (Q04912 25-304 limits assumed): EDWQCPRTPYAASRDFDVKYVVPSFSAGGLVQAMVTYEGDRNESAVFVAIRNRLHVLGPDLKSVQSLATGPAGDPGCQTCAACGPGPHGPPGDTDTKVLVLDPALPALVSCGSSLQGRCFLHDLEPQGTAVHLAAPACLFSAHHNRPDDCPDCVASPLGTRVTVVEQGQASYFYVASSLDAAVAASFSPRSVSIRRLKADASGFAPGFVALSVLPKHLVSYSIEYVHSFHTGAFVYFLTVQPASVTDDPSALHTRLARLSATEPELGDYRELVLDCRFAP
Sequence of Macrophage-stimulating protein receptor (Homo sapiens) (Q04912 310-1400 limits assumed): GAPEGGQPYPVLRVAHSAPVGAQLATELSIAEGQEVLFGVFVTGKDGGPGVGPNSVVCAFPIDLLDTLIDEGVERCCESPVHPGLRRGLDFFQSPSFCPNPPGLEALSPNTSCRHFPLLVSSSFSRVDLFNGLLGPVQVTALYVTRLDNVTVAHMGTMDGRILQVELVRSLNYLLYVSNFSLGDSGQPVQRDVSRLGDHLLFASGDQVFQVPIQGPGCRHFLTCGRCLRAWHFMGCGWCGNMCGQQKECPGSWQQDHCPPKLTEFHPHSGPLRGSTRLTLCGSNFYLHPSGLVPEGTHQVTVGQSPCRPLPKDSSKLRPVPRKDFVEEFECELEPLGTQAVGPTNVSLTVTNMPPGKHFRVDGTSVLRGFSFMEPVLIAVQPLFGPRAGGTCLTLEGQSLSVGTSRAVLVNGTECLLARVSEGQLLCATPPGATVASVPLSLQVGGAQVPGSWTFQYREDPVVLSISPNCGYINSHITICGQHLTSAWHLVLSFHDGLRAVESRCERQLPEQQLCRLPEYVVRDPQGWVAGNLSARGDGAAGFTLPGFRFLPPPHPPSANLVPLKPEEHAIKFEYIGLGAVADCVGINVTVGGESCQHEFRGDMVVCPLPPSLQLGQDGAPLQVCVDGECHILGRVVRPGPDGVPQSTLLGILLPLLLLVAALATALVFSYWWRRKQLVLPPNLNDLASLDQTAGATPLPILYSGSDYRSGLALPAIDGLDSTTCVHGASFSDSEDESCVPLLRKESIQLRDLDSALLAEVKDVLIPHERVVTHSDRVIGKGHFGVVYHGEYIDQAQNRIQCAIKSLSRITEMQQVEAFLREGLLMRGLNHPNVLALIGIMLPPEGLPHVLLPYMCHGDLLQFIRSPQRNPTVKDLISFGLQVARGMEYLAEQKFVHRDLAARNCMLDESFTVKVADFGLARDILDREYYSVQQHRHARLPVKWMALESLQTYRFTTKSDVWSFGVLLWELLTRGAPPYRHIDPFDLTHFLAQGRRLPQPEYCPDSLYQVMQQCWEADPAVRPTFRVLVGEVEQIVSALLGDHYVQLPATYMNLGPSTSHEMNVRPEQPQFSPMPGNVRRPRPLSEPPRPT

[16] = tested on: Hepatocyte growth factor receptor (Homo sapiens), P08581 [Y1235D]; test: Inhibition of c-MET Y1235D mutant (unknown origin) at 100 nM in presence of ATP by HotSpot Kinome Selectivity analysis
Homo sapiens [17] = species: Homo sapiens; test: Inhibition of c-MET G1163R mutant (unknown origin) at 100 nM in presence of ATP by HotSpot Kinome Selectivity analysis
Homo sapiens [18] = species: Homo sapiens; test: Inhibition of c-MET Y1230 mutant (unknown origin) at 100 nM in presence of ATP by HotSpot Kinome Selectivity analysis
Homo sapiens [19] = species: Homo sapiens; test: Inhibition of c-MET D1228X/Y1230X mutant (unknown origin) at 100 nM in presence of ATP by HotSpot Kinome Selectivity analysis
[20] = Toxicity in athymic BALB/c nude mouse xenografted with human EBC-1 cells assessed as body weight loss at 2 to 60 mg/kg, po bid treated for 10 to 21 days; format: organism-based; conditions: in vivo, dose lower 2 mg/kg, time lower 10 day, dose upper 60 mg/kg, time upper 21 day
[21] = Antitumor activity against human LU2503 cells xenografted in athymic BALB/c nude mouse at 2 mg/kg, po bid treated for 14 days relative to control; format: functional; conditions: LU2503, 336 h, time 14 day, read-out: TGI
[22] = Antitumor activity against human LU2503 cells xenografted in athymic BALB/c nude mouse at 6 mg/kg, po bid treated for 14 days relative to control; format: functional; conditions: LU2503, 336 h, time 14 day, read-out: TGI
[23] = Antitumor activity against human LU2503 cells xenografted in athymic BALB/c nude mouse at 60 mg/kg, po bid treated for 14 days relative to control; format: functional; conditions: LU2503, 336 h, time 14 day, read-out: TGI
EBC-1 [24] = test: Antitumor activity against human EBC-1 cells xenografted in athymic BALB/c nude mouse at 6 mg/kg, po bid treated for 21 days relative to control; format: functional; conditions: EBC-1, 504 h, time 21 day, read-out: TGI
EBC-1 [25] = test: Antitumor activity against human EBC-1 cells xenografted in athymic BALB/c nude mouse at 60 mg/kg, po bid treated for 21 days relative to control; format: functional; conditions: EBC-1, 504 h, time 21 day, read-out: TGI
BaF3 [26] = test: Antitumor activity against mouse BaF3 cells harboring TPR-D1228N mutant cells allografted in athymic BALB/c nude mouse at 6 mg/kg, po bid treated for 10 days relative to control; format: functional; conditions: BaF3, 240 h, time 10 day, read-out: TGI
BaF3 [27] = test: Antitumor activity against mouse BaF3 cells harboring TPR-D1228N mutant cells allografted in athymic BALB/c nude mouse at 20 mg/kg, po bid treated for 10 days relative to control; format: functional; conditions: BaF3, 240 h, time 10 day, read-out: TGI
Mus musculus [28] = test: In vivo inhibition of MET phosphorylation in human LU2503 cells xenografted in athymic BALB/c nude mouse administered orally measured after 1 hr post-dose; format: functional, organism-based; conditions: dose 2-60 mg/kg, route po
Mus musculus [29] = test: In vivo inhibition of MET phosphorylation in human EBC-1 cells xenografted in athymic BALB/c nude mouse administered orally measured after 1 hr post-dose; format: functional, organism-based; conditions: dose 2-60 mg/kg, route po
Mus musculus [30] = test: In vivo inhibition of MET phosphorylation in human LU2503 cells xenografted in athymic BALB/c nude mouse at 20 to 60 mg/kg, po measured after 12 hrs post-dose; format: functional, organism-based; conditions: dose 20-60 mg/kg
Mus musculus [31] = test: In vivo inhibition of MET phosphorylation in human EBC-1 cells xenografted in athymic BALB/c nude mouse at 20 to 60 mg/kg, po measured after 12 hrs post-dose; format: functional, organism-based; conditions: dose 20-60 mg/kg
[32] = AUCfree in rat measured for 28 days; format: ADME; conditions: in vivo, 672 h, time 28 day
[33] = Toxicity in rat assessed as drug tolerance measured for 28 days; conditions: in vivo, 672 h, time 28 day
BaF3 [34] = tested on: BaF3
cells = conditions: Mus musculus, BaF3/TRP-Met, 72 h
BaF3 [35] = test: cells; conditions: Mus musculus, BaF3, 72 h
BaF3 [36] = test: cells; conditions: Mus musculus, BaF3, 72 h; remark: listed apart in the source
BaF3 [37] = test: cells; conditions: Mus musculus, BaF3, 72 h; remark: listed apart in the source
BaF3 [38] = test: cells; conditions: Mus musculus, BaF3, 72 h; remark: listed apart in the source
BaF3 [39] = test: cells; conditions: Mus musculus, BaF3, 72 h; remark: listed apart in the source
BaF3 [40] = test: cells; conditions: Mus musculus, BaF3, 72 h; remark: listed apart in the source
BaF3 [41] = test: cells; conditions: Mus musculus, BaF3, 72 h; remark: listed apart in the source

For `COc1cc2nccc(Oc3c(F)cc(NC(=O)c4cnccc4OC)cc3F)c2cc1O[C@@H](C)CO`, which IC50 [1] is on record?
The IC50 was 0.2 nM.

What about the solubility kinetic [2] of the same compound?
Its solubility kinetic is 145 µM (≈ 74.2 µg/mL).

What about the “inhibition (INH)” value (Cytochrome P450 3A4) of the same compound?
Its value is “Not_active”.

And the inhibition at 10 µM (hERG [3])?
Its inhibition at 10 µM is 18%.

And the inhibition [4]?
Its inhibition is 1%.

What about the inhibition [5] of the same compound?
The inhibition was 16%.

What about the inhibition [6] of the same compound?
The inhibition was 65%.

And the half-life [7]?
Its half-life is 108 min.

What about the clearance [8] of the same compound?
Its clearance is 14.3 mL/min/kg.

And the bioavailability [9]?
Its bioavailability is 100%.

What about the half-life [10] of the same compound?
The half-life was 294 min.

What about the AUC(0-t) [11] of the same compound?
The AUC(0-t) was 18600 ng·h/mL.

What about the half-life [12] of the same compound?
The half-life was 378 min.

What about the bioavailability [13] of the same compound?
Its bioavailability is 56%.

What about the fold induction at 1 µM (PXR) of the same compound?
Its fold induction at 1 µM is < 1.5.

What about the IC20 (hERG [14]) of the same compound?
The IC20 was 10 µM.

What about the inhibition [15] of the same compound?
Its inhibition is > 90%.

What about the inhibition [16] of the same compound?
Its inhibition is 85%.

What about the inhibition (Homo sapiens [17]) of the same compound?
Its inhibition is 63%.

What about the inhibition (Homo sapiens [18]) of the same compound?
The inhibition was 0%.

And the inhibition (Homo sapiens [19])?
The inhibition was 49%.

And the Activity [20]?
Its Activity is “Non-toxic”.

And the inhibition in vivo at 2 mg/kg [21]?
The inhibition in vivo at 2 mg/kg was 43%.

And the inhibition in vivo at 6 mg/kg [22]?
Its inhibition in vivo at 6 mg/kg is 77%.

What about the inhibition in vivo at 60 mg/kg [23] of the same compound?
The inhibition in vivo at 60 mg/kg was 113%.

And the inhibition in vivo at 6 mg/kg (EBC-1 [24])?
The inhibition in vivo at 6 mg/kg was 52%.

What about the inhibition in vivo at 60 mg/kg (EBC-1 [25]) of the same compound?
The inhibition in vivo at 60 mg/kg was 110%.

And the inhibition in vivo at 6 mg/kg (BaF3 [26])?
The inhibition in vivo at 6 mg/kg was 44%.

And the inhibition in vivo at 20 mg/kg (BaF3 [27])?
Its inhibition in vivo at 20 mg/kg is 89%.

And the inhibition (Mus musculus [28])?
Its inhibition is “Dose-dependent-effect”.

What about the inhibition (Mus musculus [29]) of the same compound?
The inhibition was “Dose-dependent-effect”.

And the inhibition (Mus musculus [30])?
Its inhibition is “Active”.

And the inhibition (Mus musculus [31])?
Its inhibition is “Active”.

What about the fAUC [32] of the same compound?
Its fAUC is 5.1 µg·h/mL.

And the Activity [33]?
Its Activity is “Non-toxic”.

What about the EC50 (BaF3 [34]) of the same compound?
The EC50 was 11 nM and 5.1 nM.

What about the EC50 (cells) of the same compound?
The EC50 was 11 nM.

What about the EC50 (BaF3 [35]) of the same compound?
Its EC50 is 3.2 nM.

What about the EC50 (BaF3 [36]) of the same compound?
Its EC50 is 7.7 nM.

What about the EC50 (BaF3 [37]) of the same compound?
Its EC50 is 9.1 nM.

What about the EC50 (BaF3 [38]) of the same compound?
Its EC50 is 18 nM.

And the EC50 (BaF3 [39])?
The EC50 was 0.7 nM.

And the EC50 (BaF3 [40])?
The EC50 was 51 nM.

What about the EC50 (BaF3 [41]) of the same compound?
Its EC50 is 37 nM.
